pIC50: −log10 of the molar value. Where two headings read alike, the source gives them in different places.
Assays:
[1] = DCM
[2] = molecular target: T1, ERAP1 (Homo sapiens, UniProt Q9NZ08); assay: ERAP1 mediated hydrolysis of an amide substrate (10-mer inhibition assay), biochemical system; settings: 10-mer substrate, incubated at 23° C. for 1 h, excitation 279 nm and emission 355 nm; read-out: IC50 vs Decapeptide WRVYEKC(Dnp)ALK-acid (where Dnp is Dinitrophenyl maleimide) (10-mer)
T1 construct: Purified ERAP1(37-941)-10His (ERAP1); 10His (C)
Procedure, shortened: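 Purified ERAP1(37-941)-10His in 25 mM Bis-tris propane, 0.05% HPMC, pH 7.75 was mixed with compound, then 240 μM L-AMC or 100 μM 10-mer WRVYEKC(Dnp)ALK (concentrations before mixing) was added, 1 h at 23 °C. 10-mer cleavage read as tryptophan fluorescence (ex 279/em 355 nm); L-AMC at ex 365/em 442 nm. IC50 from 4-parameter fit.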

T1 sequence (Q9NZ08 37-941): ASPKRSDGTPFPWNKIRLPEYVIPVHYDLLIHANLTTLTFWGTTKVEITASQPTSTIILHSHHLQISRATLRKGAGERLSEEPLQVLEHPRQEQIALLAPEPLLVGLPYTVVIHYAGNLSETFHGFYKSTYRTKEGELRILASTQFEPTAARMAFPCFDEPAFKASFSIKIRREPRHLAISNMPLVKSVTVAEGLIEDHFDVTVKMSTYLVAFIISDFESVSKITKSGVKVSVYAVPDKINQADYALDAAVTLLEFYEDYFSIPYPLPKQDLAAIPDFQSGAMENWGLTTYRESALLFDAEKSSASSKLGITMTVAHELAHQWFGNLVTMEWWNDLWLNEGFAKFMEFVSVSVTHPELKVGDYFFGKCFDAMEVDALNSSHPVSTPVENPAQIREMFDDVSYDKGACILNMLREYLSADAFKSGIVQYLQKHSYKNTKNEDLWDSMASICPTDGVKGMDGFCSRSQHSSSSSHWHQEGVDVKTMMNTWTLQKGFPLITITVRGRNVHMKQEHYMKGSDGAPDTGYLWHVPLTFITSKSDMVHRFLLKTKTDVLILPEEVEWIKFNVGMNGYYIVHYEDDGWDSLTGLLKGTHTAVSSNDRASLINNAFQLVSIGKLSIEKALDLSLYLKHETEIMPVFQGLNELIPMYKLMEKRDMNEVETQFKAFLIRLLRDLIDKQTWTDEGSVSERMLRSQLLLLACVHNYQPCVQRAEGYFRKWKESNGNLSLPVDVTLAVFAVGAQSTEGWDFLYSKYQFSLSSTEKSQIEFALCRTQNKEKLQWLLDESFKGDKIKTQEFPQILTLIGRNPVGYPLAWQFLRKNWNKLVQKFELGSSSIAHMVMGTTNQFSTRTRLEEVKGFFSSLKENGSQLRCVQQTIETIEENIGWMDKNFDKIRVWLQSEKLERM

COC(=O)c1ccc2c(c1)S(=O)(=O)Nc1cc(C#N)c(Cl)cc1N1CCCCC1C=CCO2 (centres unmarked)
ring closure, isolated yield ([1]; from C=CCOc1ccc(C(=O)OC)cc1S(=O)(=O)Nc1cc(C#N)c(Cl)cc1N1CCCCC1C=C, rcm bond, 12-membered ring, Hoveyda-Grubbs II (2 x 5 mol%), 56.3 mM, 88.0 h): 25%

COC(=O)c1ccc2c(c1)S(=O)(=O)Nc1cc(C#N)c(Cl)cc1N1CCCC[C@@H]1CCCO2
ring closure, isolated yield ([1]; from COC(=O)c1ccc(O)c(S(=O)(=O)Nc2cc(C#N)c(Cl)cc2N2CCCC[C@@H]2CCCO)c1, ether bond, 12-membered ring, PPh3/DIAD, 43.7 mM, 1.0 h): 22%

COC(=O)c1ccc2c(c1)S(=O)(=O)Nc1cc(C#N)c(Cl)cc1N1CCCC[C@H]1CC=CCO2
ring closure, isolated yield ([1]; from C=CCOc1ccc(C(=O)OC)cc1S(=O)(=O)Nc1cc(C#N)c(Cl)cc1N1CCCC[C@H]1CC=C, rcm bond, 13-membered ring, Hoveyda-Grubbs II, 20.1 mM, 16.0 h): 81%

COC(=O)c1ccc2c(c1)S(=O)(=O)Nc1cc(C#N)c(Cl)cc1N1CCCC[C@H]1CCCO2
ring closure, isolated yield ([1]; from COC(=O)c1ccc(O)c(S(=O)(=O)Nc2cc(C#N)c(Cl)cc2N2CCCC[C@H]2CCCO)c1, ether bond, 12-membered ring, PPh3/DIAD, 47.1 mM, 1.0 h): 23%

COC(=O)c1ccc2c(c1)S(=O)(=O)Nc1cc(C#N)c(F)cc1N1CCCC[C@H]1CCCCO2
ring closure, isolated yield ([1]; from COC(=O)c1ccc(O)c(S(=O)(=O)Nc2cc(C#N)c(F)cc2N2CCCC[C@H]2CCCCO)c1, ether bond, 13-membered ring, PPh3/DIAD, 31.7 mM, 1.0 h): 88%

N#Cc1cc2c(cc1Cl)N1CCCC[C@H]1COC/C=C/c1ccc(C(=O)O)cc1S(=O)(=O)N2 [Example 70, (S,E)-3-chloro-2-cyano-6,7,8,9,9a,10-hexahydro-12H, 20H-dibenzo[e,i]pyrido[2,1-c][1]oxa[8]thia[4,7]diazacyclotridecine-17-carboxylic acid 19,19-dioxide]
pIC50 [2]: > 6.60

N#Cc1cc2c(cc1Cl)N1CCCC[C@H]1CCC/C=C/c1ccc(C(=O)O)cc1S(=O)(=O)N2 [Example 71, (R,E)-3-chloro-2-cyano-6,7,8,9,9a,10,11,12-octahydro-20H-dibenzo[c,l]pyrido[1,2-e][1]thia[2,5]diazacyclotridecine-17-carboxylic acid 19,19-dioxide]
pIC50 [2]: 6.00 to 6.60

N#Cc1cc2c(cc1Cl)N1CCCC[C@H]1CCCCCc1ccc(C(=O)O)cc1S(=O)(=O)N2 [Example 72, (R)-3-chloro-2-cyano-6,7,8,9,9a,10,11,12,13,14-decahydro-20H-dibenzo[c,l]pyrido[1,2-e][1]thia[2,5]diazacyclotridecine-17-carboxylic acid 19,19-dioxide]
pIC50 [2]: > 6.60

N#Cc1cc2c(cc1Cl)N1CCCC[C@H]1COCCCc1ccc(C(=O)O)cc1S(=O)(=O)N2 [Example 73, (S)-3-chloro-2-cyano-6,7,8,9,9a,10,13,14-octahydro-12H, 20H-dibenzo[e,i]pyrido[2,1-c][1]oxa[8]thia[4,7]diazacyclotridecine-17-carboxylic acid 19,19-dioxide]
pIC50 [2]: > 6.60

(E)-20-tert-butyl 17-methyl 2-(trifluoromethyl)-6,7,8,9,9a,10-hexahydrodibenzo[b,f]pyrido[1,2-h][1,4,5,8]oxathiadiazacyclotridecine-17,20(13H)-dicarboxylate 19,19-dioxide
ring closure, isolated yield ([1]; rcm bond, 13-membered ring, Hoveyda-Grubbs II (two portions), 42.3 mM, 35.0 °C): 33%

methyl (E)-2-cyano-7,8,9,9a,10,13-hexahydro-6H, 20H-dibenzo[b,f]pyrido[1,2-h][1]oxa[4]thia[5,8]diazacyclotridecine-17-carboxylate 19,19-dioxide
ring closure, isolated yield ([1]; rcm bond, 13-membered ring, Hoveyda-Grubbs II (5 mol%), 50.2 mM): 66%

— patent US20240300976A1, “COMPOUNDS AS MODULATORS OF ENDOPLASMIC RETICULUM AMINOPEPTIDASE 1 (ERAP1)” (GREY WOLF THERAPEUTICS LIMITED, priority 2020, published 2024)
